Patent US7033810B2, “Sitosterolemia susceptibility gene (SSG): compositions and methods of use” (Amgen Inc., priority 2000, dated 2006)

What was measured:
[1] = test system: human ABC1; experiment: Northern blot, ABC1 expression in Caco-2 cells; format: cell-based; details: Human Caco-2 cells
Experimental: (§1) Human Caco-2 cells were treated with Compounds B and C. Northern blot analysis was performed (essentially as described above) using human ABC1 and ABC8 cDNA probes.

[2] = test system: human ABC8; experiment: Northern blot, ABC8 expression in Caco-2 cells; format: cell-based; details: Human Caco-2 cells
Experimental: as §1

[3] = test system: ABC1 mRNA; experiment: Northern blot of ABC1 mRNA in tissues of treated mice; format: in vivo, C57BL/6 mouse; details: 0, 1, 5 and 50 mg/kg
Experimental: (§2) Total RNA was prepared from untreated (control) and treated (0, 1, 5 and 50 mg/kg of LXRa agonist Compound A) C57BL/6 mouse liver, intestine and kidney. RNA was electrophoresed on 1.2% agarose/formaldehyde gels, transferred to nylon membrane (Ambion, Bright Star), hybridized to ^32P-labeled murine ABC-1, apolipoprotein AI, and GAPDH cDNA probes, washed and subjected to autoradiography.

[4] = test system: GAPDH mRNA; experiment: Northern blot of GAPDH mRNA in tissues of treated mice; format: in vivo, C57BL/6 mouse; details: liver, intestine and kidney; 0, 1, 5 and 50 mg/kg
Experimental: as §2

[5] = test system: apolipoprotein AI mRNA; experiment: Northern blot of apolipoprotein AI mRNA in tissues of treated mice; format: in vivo, C57BL/6 mouse; details: liver, intestine and kidney; 0, 1, 5 and 50 mg/kg
Experimental: as §2

[6] = test system: SSG mRNA; experiment: Northern blot of SSG mRNA in tissues of treated mice; format: in vivo, C57BL/6 mouse; details: 0, 1, 5 and 50 mg/kg
Experimental: Total RNA was prepared from untreated (control) and treated (0, 1, 5 and 50 mg/kg of LXRa agonist Compound A) C57BL/6 mouse liver, intestine and kidney. RNA was electrophoresed on 1.2% agarose/formaldehyde gels, transferred to nylon membrane (Ambion, Bright Star), hybridized to ^32P-labeled murine SSG cDNA probe, washed and subjected to autoradiography.

[7] = test system: Caco-2 cells; experiment: [3H]-cholesterol efflux from Caco-2 cells; format: cell-based, human; details: 1 μM, 24 h treatment; efflux media with apolipoprotein AI 10 ug/ml; 8 and 24 hour time points
Experimental: Caco2 cells (an adenocarcinoma cell line derived from human colon) were plated in 6 well plates at 50-60% confluence and allowed to adhere overnight in DMEM containing 10% FBS, non-essential amino acids, and Pen/Strep. On the second day, cells were labeled for 24 h with [^3H]-cholesterol (0.5 μCi/ml in DMEM and 1% BSA, Pen/Strep). Cells were washed (2×) with PBS and DMEM (1% BSA) with or without the addition of Compound A (1 μM final concentration). After 24 h treatment, cells were washed (2× with PBS) and efflux media was added containing purified apolipoprotein AI (10 ug/ml). Cells and media were harvested at 8 and 24 hour time points. Cells were washed 3× with PBS, and lysed with 300 μl of 0.5 M NaOH. Radioactivity in media and cell lysates were scintillation counted and normalized to cell protein (using BioRad Lowry Kit). Efflux data shown in is presented as CPM (media)/mg cell protein (FIG. 4).

[8] = test system: EST clone AA237916 (murine SSG); experiment: GEM analysis, EST clone AA237916; format: in vivo, C57BL/6 mouse
Experimental: Total RNA was prepared from untreated (control) and treated (50 mg/kg of LXRα agonist Compound A) C57BL/6 mouse liver, intestine and kidney. Control and treated RNA samples were used to generate separate pools of unique, fluorescently labeled cDNA probes (performed at Incyte Genomics Inc.). Each (two fluorescent probe) tissue sample was simultaneously applied to a single Incyte Mouse GEM™ 1 microarray where they were competitively reacted with the arrayed cDNA molecules (containing 8,734 cDNA elements). The intensity of the fluorescence at each array element is proportional to the expression level of that particular gene in the sample. Each element of the GEM™ microarray was scanned for the first fluorescent color, and then repeated for the second fluorescent label. The ratio of the two fluorescent intensities provided a quantitative measurement of the relative gene expression level in the two samples. […] A portion of that composite is shown in Table 2, which lists genes having the highest relative expression levels in the treated intestine and their corresponding relative expression levels in liver and kidney. […] One EST in particular, corresponding to Accession Number AA237916, and shown in the first row of Table 2, was selected for further analysis, in part based on its similarity to the Drosophila Brown protein, a member of the ABC superfamily. […]

Row | SMILES | human ABC1 expression (Northern blot) [1] | human ABC8 expression (Northern blot) [2] | ABC1 mRNA ([3]; intestine) | ABC1 mRNA ([3]; kidney) | ABC1 mRNA ([3]; liver) | GAPDH mRNA levels [4] | apolipoprotein AI mRNA levels [5] | SSG expression (mRNA, Northern blot) ([6]; intestine) | SSG expression (mRNA, Northern blot) ([6]; liver) | cholesterol efflux [7] | induction of EST clone AA237916 (murine SSG) ([8]; intestine of treated mice) [fold] | induction of EST clone AA237916 (murine SSG) ([8]; liver of treated mice) [fold]
1 | CN(c1ccc(C(O)(C(F)(F)F)C(F)(F)F)cc1)S(=O)(=O)c1ccccc1 [B] | induced | induced | – | – | – | – | – | – | – | – | – | –
2 | CC(c1ccco1)N(C(=O)C12CC3CC(CC(C3)C1)C2)c1ccccn1 (centres unmarked) [C] | induced | induced | – | – | – | – | – | – | – | – | – | –
3 | O=S(=O)(c1ccccc1)N(CC(F)(F)F)c1ccc(C(O)(C(F)(F)F)C(F)(F)F)cc1 [Compound A] | – | – | Dose dependent increases | Dose dependent increases | Dose dependent increases | no measurable difference | no measurable difference | induced | induced | Stimulates Cholesterol Efflux | 2.5 | 2.4
